Where two headings read alike, the source gives them in different places.
Columns and labels:
[1] = log P by HPLC on reversed-phase C18 columns, OECD Guideline 117; format: physicochemical; conditions: for logP [a]: pH 2.7; for logP [b]: pH 7.8; for chromatographic logP: reversed-phase C18 HPLC column
Experimental: The log P values were determined in accordance with OECD Guideline 117 (EC Directive 92/69/EEC) by HPLC (high-performance liquid chromatography) using reversed-phase (RP) columns (C18), by the following methods: [a] The LC-MS determination in the acidic range is effected at pH 2.7 with 0.1% aqueous formic acid and acetonitrile (contains 0.1% formic acid) as eluents; linear gradient from 10% acetonitrile to 95% acetonitrile. [b] LC-MS determination in the neutral range is effected at pH 7.8 with 0.001 molar aqueous ammonium hydrogencarbonate solution and acetonitrile as eluents; linear gradient from 10% acetonitrile to 95% acetonitrile. Calibration is effected with unbranched alkan-2-ones (having 3 to 16 carbon atoms) with known log P values (log P values determined on the basis of the retention times by linear interpolation between two successive alkanones).

[2] = test system: green peach aphid (Myzus persicae); assay: Myzus persicae spray test (MYZUPE), bell pepper plants; format: in vivo; conditions: after 6 days
Experimental: Myzus Persicae—Spray Test (MYZUPE) • Solvent: 7 parts by weight of dimethylformamide • Emulsifier: alkylaryl polyglycol ether To produce an appropriate active ingredient preparation, 1 part by weight of active ingredient is dissolved using the specified parts by weight of solvent and made up with water containing an emulsifier concentration of 1000 ppm until the desired concentration is attained. To produce further test concentrations, the preparation is diluted with emulsifier-containing water. If the addition of ammonium salts or/and penetrants is required, these are each added in a concentration of 1000 ppm to the preparation solution. Bell pepper plants (Capsicum annuum) severely infested with the green peach aphid (Myzus persicae) are treated by spraying with the active ingredient preparation in the desired concentration. After 6 days, the kill in % is determined. 100% means that all the aphids have been killed; 0% means that no aphids have been killed.

[3] = test system: green peach aphid (Myzus persicae); assay: Myzus persicae spray test (MYZUPE), Chinese cabbage leaf discs; format: in vivo; conditions: after 6 days
Experimental: Myzus persicae—Spray Test (MYZUPE)
• Solvent: 78 parts by weight of acetone • 1.5 parts by weight of dimethylformamide • Emulsifier: alkylaryl polyglycol ether
(§1) To produce an appropriate active ingredient preparation, 1 part by weight of active ingredient is dissolved using the specified parts by weight of solvent and made up with water containing an emulsifier concentration of 1000 ppm until the desired concentration is attained. To produce further test concentrations, the preparation is diluted with emulsifier-containing water.
Discs of Chinese cabbage leaves (Brassica pekinensis) infested with all stages of the green peach aphid (Myzus persicae) are sprayed with an active ingredient preparation of the desired concentration.
After 6 days, the efficacy in % is determined. 100% means that all the aphids have been killed; 0% means that none of the aphids have been killed.

[4] = test system: greenhouse red spider mite (Tetranychus urticae); assay: Tetranychus urticae spray test, OP-resistant (TETRUR), bean leaf discs; format: in vivo; conditions: application rate 500 g/ha, after 6 days
Experimental: Tetranychus urticae—Spray Test, OP-Resistant (TETRUR)
• Solvent: 78.0 parts by weight of acetone • 1.5 parts by weight of dimethylformamide • Emulsifier: alkylaryl polyglycol ether
as §1
Discs of bean leaves (Phaseolus vulgaris) infested with all stages of the greenhouse red spider mite (Tetranychus urticae) are sprayed with an active compound preparation of the desired concentration.
After 6 days, the efficacy in % is determined. 100% means that all the spider mites have been killed; 0% means that none of the spider mites have been killed.

[5] = test system: adult houseflies (Musca domestica); assay: Musca domestica test (MUSCDO); format: in vivo; conditions: application rate 100 ppm, after 2 days
Experimental: Musca domestica Test (MUSCDO) • Solvent: dimethyl sulphoxide To prepare an appropriate active ingredient preparation, 10 mg of active ingredient are mixed with 0.5 ml of dimethyl sulphoxide, and the concentrate is diluted with water to the desired concentration. Vessels containing a sponge treated with sugar solution and the active ingredient preparation of the desired concentration are populated with 10 adult houseflies (Musca domestica). After 2 days, the kill in % is determined. 100% means that all of the flies have been killed; 0% means that none of the flies have been killed.

[6] = acidic range, NMR peak list table
[7] = neutral range, NMR peak list table
[8] = acidic range, pH 2.7, 0.1% aqueous formic acid/acetonitrile, read-out: log P[a]
[9] = neutral range, pH 7.8, ammonium hydrogencarbonate/acetonitrile, read-out: log P[b]

SMILES	logP [a] [1, 6]	logP [b] [1, 7]	efficacy in % ([3]; application rate 500 g/ha)	other results
O=c1c2cn(-c3cccnc3)nc2ncn1-c1cccc(SCC(F)(F)F)c1 [I-1-12]	2.25	2.18	90%	
Cc1cc(F)c(-n2c(C)nc3nn(-c4cccnc4)cc3c2=O)cc1SCC(F)(F)F [I-1-22]	2.74	2.69	90%	
O=c1c2cn(-c3cccnc3)nc2ncn1-c1cccc([S+]([O-])CC(F)(F)F)c1 (stereo not drawn) [I-1-16]	1.46	1.41	90%	
Cc1ccc(-n2cnc3nn(-c4cccnc4)cc3c2=O)cc1[S+]([O-])CC(F)(F)F (stereo not drawn) [I-1-8]			90%	logP [a] ([1]; acidic range, Table 2): 1.65; logP [b] ([1]; neutral range, Table 2): 1.67
O=c1c2cn(-c3cccnc3)nc2ncn1-c1cccc([S+]([O-])CC2CC2)c1 (stereo not drawn) [I-1-21]	1.27	1.32	90%	
Cc1cc(F)c(-n2cnc3nn(-c4cccnc4)cc3c2=O)cc1[S+]([O-])CC(F)(F)F (stereo not drawn) [I-1-4, 5-{2-Fluoro-4-methyl-5-[(2,2,2-trifluoroethyl)sulphinyl]phenyl}-2-(pyridin-3-yl)-2,5-dihydro-4H-pyrazolo[3,4-d]pyrimidin-4-one]			100%	chromatographic logP [1, 8]: 1.79; chromatographic logP [1, 9]: 1.78; efficacy in % [4]: 100%
O=c1c2cn(-c3cccnc3)nc2ncn1-c1cc(SCC(F)(F)F)ccc1F [I-1-9]				logP [a] ([1]; acidic range, Table 2): 2.32; logP [b] ([1]; neutral range, Table 2): 2.35; efficacy in % ([3]; application rate 100 g/ha): 90%
Cc1cc(F)c(-n2cnc3nn(-c4cccnc4)cc3c2=O)cc1SCC(F)(F)F [I-1-1, 5-{2-Fluoro-4-methyl-5-[(2,2,2-trifluoroethyl)sulphanyl]phenyl}-2-(pyridin-3-yl)-2,5-dihydro-4H-pyrazolo[3,4-d]pyrimidin-4-one]				chromatographic logP [1, 8]: 2.65; chromatographic logP [1, 9]: 2.63; efficacy (kill in %) ([2]; application rate 20 ppm): 100%
CSc1cccc(-n2cnc3nn(-c4cccnc4)cc3c2=O)c1 [I-1-6]			90%	logP [a] ([1]; acidic range, Table 2): 1.82; logP [b] ([1]; neutral range, Table 2): 1.78
Cc1cc(F)c(-n2nnc3nn(-c4cccnc4)cc3c2=O)cc1[S+]([O-])CC(F)(F)F (stereo not drawn) [I-1-2, 3-[2-Fluoro-4-methyl-5-(2,2,2-trifluoroethylsulphinyl)phenyl]-6-(3-pyridyl)pyrazolo[3,4-d]triazin-4-one]			100%	efficacy (kill in %) [5]: 80%; chromatographic logP [1, 8]: 2.22; chromatographic logP [1, 9]: 2.19
Cc1cc(F)c(NC(=O)c2cn(-c3cccnc3)nc2N)cc1SCC(F)(F)F [II-1, 3-Amino-N-{2-fluoro-4-methyl-5-[(2,2,2-trifluoroethyl)sulphanyl]phenyl}-1-(pyridin-3-yl)-1H-pyrazole-4-carboxamide]				chromatographic logP [1, 8]: 2.72; chromatographic logP [1, 9]: 2.63
CSc1ccccc1-n1cnc2nn(-c3cccnc3)cc2c1=O [I-2-23]	1.65	1.67	90%	
Cc1cc(F)c(-n2nnc3nn(-c4cccnc4)cc3c2=O)cc1SCC(F)(F)F [I-1-3, 3-[2-fluoro-4-methyl-5-(2,2,2-trifluoroethylsulphanyl)phenyl]-6-(3-pyridyl)pyrazolo[3,4-d]triazin-4-one]			100%	efficacy (kill in %) [5]: 80%; chromatographic logP [1, 8]: 3.18; chromatographic logP [1, 9]: 3.14
Cc1cc(F)c(-n2cnc3nn(-c4ccc[n+]([O-])c4)cc3c2=O)cc1[S+]([O-])CC(F)(F)F (stereo not drawn) [I-1-5, 5-{2-Fluoro-4-methyl-5-[(2,2,2-trifluoroethyl)sulphinyl]phenyl}-2-(1-oxidopyridin-1-ium-3-yl)pyrazolo[3,4-d]pyrimidin-4-one]			100%	chromatographic logP [1, 8]: 1.39; chromatographic logP [1, 9]: 1.33
O=c1c2cn(-c3cccnc3)nc2ncn1-c1cc([S+]([O-])CC(F)(F)F)ccc1F (stereo not drawn) [I-1-10]			100%	logP [a] ([1]; acidic range, Table 2): 1.53; logP [b] ([1]; neutral range, Table 2): 1.55
Cc1cc(C)c(-n2cnc3nn(-c4cccnc4)cc3c2=O)cc1SCC(F)(F)F [I-1-17]	2.75	2.72	90%	
O=c1c2cn(-c3cccnc3)nc2ncn1-c1cccc(SCC2CC2)c1 [I-1-11]	2.50	2.41	100%	
Cc1ccc(-n2cnc3nn(-c4cccnc4)cc3c2=O)cc1SCC(F)(F)F [I-1-7]			90%	logP [a] ([1]; acidic range, Table 2): 2.51; logP [b] ([1]; neutral range, Table 2): 2.56
Cc1cc(C)c([S+]([O-])CC(F)(F)F)cc1-n1cnc2nn(-c3cccnc3)cc2c1=O (stereo not drawn) [I-1-20]	1.84	1.79		efficacy in % [4]: 90%; efficacy in % ([3]; application rate 20 g/ha): 90%

Now from value to molecule, other results behind:

logP [a] [1, 6]	logP [b] [1, 7]	SMILES	efficacy in % ([3]; application rate 500 g/ha)	other results
2.70	2.65	O=c1c2cn(-c3cccnc3)nc2ncn1-c1cc(SCC(F)(F)F)c(Cl)cc1F [I-1-13]		efficacy (kill in %) ([2]; application rate 4 ppm): 100%
2.02	1.94	O=c1c2cn(-c3cccnc3)nc2ncn1-c1cc([S+]([O-])CC(F)(F)F)c(Cl)cc1F (stereo not drawn) [I-1-18]	90%	
1.66	1.67	O=c1c2cn(-c3ccc[n+]([O-])c3)nc2ncn1-c1cc([S+]([O-])CC(F)(F)F)c(Cl)cc1Cl (stereo not drawn) [I-1-15]	90%	
2.91	2.83	O=c1c2cn(-c3cccnc3)nc2ncn1-c1cc(SCC(F)(F)F)c(Cl)cc1Cl [I-1-14]	90%	
2.17	2.09	O=c1c2cn(-c3cccnc3)nc2ncn1-c1cc([S+]([O-])CC(F)(F)F)c(Cl)cc1Cl (stereo not drawn) [I-1-19]	90%	

From patent US9920059B2, “Heterocyclic compounds as pesticides” (BAYER CROPSCIENCE AKTIENGESELLSCHAFT, priority 2014, dated 2018)
